Source: US10131932B2, “Method for assaying a protease” (McMaster University, priority 2013, dated 2018)

Assays:
Thrombin [1] = assay: Thrombin activity on substrate S2238 with inhibitors; format: biochemical; settings: 60 minutes incubation, alpha-2-macroglobulin 0.2 μM, PPAck 20 μM
Method: The effect of thrombin substrate, S2238, on thrombin activity in the presence and absence of alpha-2-macroglobulin was then determined. Following addition of thrombin (as above), thrombin incubated with alpha-2-macroglobulin for 60 minutes (as above), thrombin incubated with PPAck (as above) for 60 minutes, or thrombin incubated with alpha-2-macroglobulin (0.2 μM) and PPAck (20 μM) for 60 minutes, to S2238, thrombin activity was determined.

Thrombin [2] = assay: Thrombin activity on T13 FRET-protein substrate with inhibitors; format: biochemical; settings: 60 minutes incubation, alpha-2-macroglobulin 0.2 μM, PPAck 20 μM
Method: The effect of the FRET-protein substrate on the thrombin activity in the absence and presence of alph-2-macroglobulin was then determined. Following addition of either thrombin (as above), thrombin incubated with alpha-2-macroglobulin for 60 minutes (as above) or thrombin incubated for 60 minutes with the thrombin inhibitor, PPAck (D-FPR-chloromethyl ketone, 20 μM), thrombin activity was determined. Thrombin was inhibited by either alpha-2-macroglobulin or PPAck, as shown by the reduction in the slope of the ratio for each (FIG. 11B).

[3] = system: thrombin generation in whole blood; assay: Thrombin generation in unanticoagulated whole blood with FRET-protein substrate; format: biochemical, human; settings: for area-under-the-curve of slope of the ratio curve / maximal upslope of slope of the ratio curve / peak height of slope of the ratio curve / thrombin generation: increasing amounts of anticoagulant in whole blood
Method: In this experiment, 12 μL of unanticoagulated human blood, obtained from a finger prick of a healthy human donor, was added to a plastic vessel (NUNC, Polystyrene, 384 well plate) containing the T13 FRET-protein substrate (8 μL in PIPES buffer, 4.6 μM final concentration) within 30 seconds of lancing the finger. Results were obtained on a fluorescence spectrophotometer, as above, temperature controlled to 37° C. Initially, as the mixture warms, the ratio of emission at 526 nm:581 nm decreases slightly, but then increases, initially sharply to a plateau as shown in FIG. 6.
The slope (first derivative) of the ratio was then determined using a mathematical program such as Excel or GraphPad Prism as shown in FIG. 7A. The curve of the slope of the ratio is smoothed using 20 neighbours using a mathematical program (Excel or GraphPad Prism). This is the typical appearance of a thrombin generation curve in plasma. Parameters that could be used to describe this curve include, but are not limited to, peak height, time to peak, lag time, maximal upslope, and area-under-the curve to a certain time point. FIG. 7B compares a) 12 μL blood combined with FRET-protein substrate (final conc. 4.6 μM) to final volume of 20 μL to b) 20 μL blood combined with FRET-protein substrate (final conc. 5.1 μM) to a final volume of 22.5 μL. The time-to-peak and lag-time are shortened and the peak height, maximal upslope and area-under-the-curve are increased in the latter where the blood is less dilute.
The effect of rivaroxaban on thrombin generation in the blood was determined. Unanticoagulated blood was taken from a finger prick of a healthy volunteer. The blood was added to a plastic vessel containing the FRET-protein substrate (0.62 μM) and rivaroxaban at various concentrations (to a final concentration of 5 μg/L, 25 μg/L and 50 μg/L).
The effect of apixaban on thrombin generation in the blood was also determined. Blood was added to FRET-protein substrate and various concentrations of apixaban was (to a final concentration of 25 μg/L, 100 μg/L, 400 μg/L and 1000 μg/L). Apixaban also alters the shape of the “slope of the ratio curve”.
The effect of dabigatran on thrombin generation in the blood was also determined. Blood was added to FRET-protein substrate and various concentrations of […] was (to a final concentration of 25 μg/L, 100 μg/L and 400 μg/L). Dabigatran also alters the shape of the “slope of the ratio curve”. […]

Thrombin [4] = assay: Fibrinogen clotting by thrombin, turbidity at 405 nm; format: biochemical; settings: 0.2 μM
Method: The effect of alpha-2-macroglobulin on thrombin activity was determined. Thrombin (2 nM) and calcium (5 mM) were combined in PIPES buffer. Clotting was initiated by the addition of fibrinogen (3 μM). Clotting was measured by monitoring turbidity 405 nm using a spectrometer. The fibrinogen clotted within 10 minutes and remained clotted.

Row | Molecule | thrombin activity (slope of absorbance) (Thrombin [1]) | thrombin activity (slope of the ratio) (Thrombin [2]) | area-under-the-curve of slope of the ratio curve [3] | maximal upslope of slope of the ratio curve [3] | peak height of slope of the ratio curve [3] | thrombin generation [3] | other results
1 | NC(N)=NCCC[C@H](NC(=O)[C@@H]1CCCN1C(=O)[C@H](N)Cc1ccccc1)C(=O)CCl [PPAck, D-FPR-chloromethyl ketone] | substantial inhibition | inhibited | – | – | – | – | –
2 | COc1ccc(-n2nc(C(N)=O)c3c2C(=O)N(c2ccc(N4CCCCC4=O)cc2)CC3)cc1 [apixaban] | – | – | decreased | decreased | decreased | decreases thrombin generation | time to peak ([3]; anticoagulant in whole blood, dabigatran at higher concentrations): increase the time to peak
3 | O=C(NC[C@H]1CN(c2ccc(N3CCOCC3=O)cc2)C(=O)O1)c1ccc(Cl)s1 [rivaroxaban] | – | – | decreased | decreased | decreased | decrease thrombin generation | –
4 | corn trypsin inhibitor | – | – | – | – | – | – | thrombin generation (peak of slope of ratio) ([3]; 200 μg/mL final concentration, unanticoagulated whole blood): delay and reduce
5 | alpha-2-macroglobulin: thrombin-binding plasma inhibitor protein (protein, UniProt P01023 24-1474, looked up) Alpha-2-macroglobulin: SVSGKPQYMVLVPSLLHTETTEKGCVLLSYLNETVTVSASLESVRGNRSLFTDLEAENDVLHCVAFAVPKSSSNEEVMFLTVQVKGPTQEFKKRTTVMVKNEDSLVFVQTDKSIYKPGQTVKFRVVSMDENFHPLNELIPLVYIQDPKGNRIAQWQSFQLEGGLKQFSFPLSSEPFQGSYKVVVQKKSGGRTEHPFTVEEFVLPKFEVQVTVPKIITILEEEMNVSVCGLYTYGKPVPGHVTVSICRKYSDASDCHGEDSQAFCEKFSGQLNSHGCFYQQVKTKVFQLKRKEYEMKLHTEAQIQEEGTVVELTGRQSSEITRTITKLSFVKVDSHFRQGIPFFGQVRLVDGKGVPIPNKVIFIRGNEANYYSNATTDEHGLVQFSINTTNVMGTSLTVRVNYKDRSPCYGYQWVSEEHEEAHHTAYLVFSPSKSFVHLEPMSHELPCGHTQTVQAHYILNGGTLLGLKKLSFYYLIMAKGGIVRTGTHGLLVKQEDMKGHFSISIPVKSDIAPVARLLIYAVLPTGDVIGDSAKYDVENCLANKVDLSFSPSQSLPASHAHLRVTAAPQSVCALRAVDQSVLLMKPDAELSASSVYNLLPEKDLTGFPGPLNDQDNEDCINRHNVYINGITYTPVSSTNEKDMYSFLEDMGLKAFTNSKIRKPKMCPQLQQYEMHGPEGLRVGFYESDVMGRGHARLVHVEEPHTETVRKYFPETWIWDLVVVNSAGVAEVGVTVPDTITEWKAGAFCLSEDAGLGISSTASLRAFQPFFVELTMPYSVIRGEAFTLKATVLNYLPKCIRVSVQLEASPAFLAVPVEKEQAPHCICANGRQTVSWAVTPKSLGNVNFTVSAEALESQELCGTEVPSVPEHGRKDTVIKPLLVEPEGLEKETTFNSLLCPSGGEVSEELSLKLPPNVVEESARASVSVLGDILGSAMQNTQNLLQMPYGCGEQNMVLFAPNIYVLDYLNETQQLTPEIKSKAIGYLNTGYQRQLNYKHYDGSYSTFGERYGRNQGNTWLTAFVLKTFAQARAYIFIDEAHITQALIWLSQRQKDNGCFRSSGSLLNNAIKGGVEDEVTLSAYITIALLEIPLTVTHPVVRNALFCLESAWKTAQEGDHGSHVYTKALLAYAFALAGNQDKRKEVLKSLNEEAVKKDNSVHWERPQKPKAPVGHFYEPQAPSAEVEMTSYVLLAYLTAQPAPTSEDLTSATNIVKWITKQQNAQGGFSSTQDTVVALHALSKYGAATFTRTGKAAQVTIQSSGTFSSKFQVDNNNRLLLQQVSLPELPGEYSMKVTGEGCVYLQTSLKYNILPEKEEFPFALGVQTLPQTCDEPKAHTSFQISLSVSYTGSRSASNMAIVDVKMVSGFIPLKPTVKMLERSNHVSRTEVSSNHVLIYLDKVSNQTLSLFFTVLQDVPVRDLKPAIVKVYDYYETDEFAIAEYNAPCSKDLGNA | little inhibition | inhibited | – | – | – | – | clotting of fibrinogen (Thrombin [4]; pre-incubation with thrombin (2 nM) for 35 minutes): reduced clotting; clotting of fibrinogen (Thrombin [4]; pre-incubation with thrombin (2 nM) for 60 minutes): inhibited clotting
